Results on four molecules are retold here after PMC3914206.

SMILES strings stand for the structures.

What all share (format): binding
What all share (conditions): Compound Concentration 10 µM

For assay [1], the target named is T1, panel of 442 kinases (Homo sapiens, UniProt P08581).
T1 construct: purchased KINOMEscan
The source says: (§1) We assessed the selectivity of members of this scaffold using the KINOMEscan methodology across a near comprehensive panel of 442 kinases [[18,27]].

Assay [2] addresses T2, panel of 442 kinases (Homo sapiens, UniProt P10721).
T2 construct: purchased KINOMEscan
Source text: as §1

In assay [3] the target is T3, panel of 442 kinases (Homo sapiens, UniProt P48736).
T3 construct: purchased KINOMEscan
Source text: as §1

For assay [4], the target named is T4, panel of 442 kinases (Homo sapiens, UniProt Q96GD4).
T4 construct: purchased KINOMEscan
Source text: as §1

T2 sequence (P10721 26-976): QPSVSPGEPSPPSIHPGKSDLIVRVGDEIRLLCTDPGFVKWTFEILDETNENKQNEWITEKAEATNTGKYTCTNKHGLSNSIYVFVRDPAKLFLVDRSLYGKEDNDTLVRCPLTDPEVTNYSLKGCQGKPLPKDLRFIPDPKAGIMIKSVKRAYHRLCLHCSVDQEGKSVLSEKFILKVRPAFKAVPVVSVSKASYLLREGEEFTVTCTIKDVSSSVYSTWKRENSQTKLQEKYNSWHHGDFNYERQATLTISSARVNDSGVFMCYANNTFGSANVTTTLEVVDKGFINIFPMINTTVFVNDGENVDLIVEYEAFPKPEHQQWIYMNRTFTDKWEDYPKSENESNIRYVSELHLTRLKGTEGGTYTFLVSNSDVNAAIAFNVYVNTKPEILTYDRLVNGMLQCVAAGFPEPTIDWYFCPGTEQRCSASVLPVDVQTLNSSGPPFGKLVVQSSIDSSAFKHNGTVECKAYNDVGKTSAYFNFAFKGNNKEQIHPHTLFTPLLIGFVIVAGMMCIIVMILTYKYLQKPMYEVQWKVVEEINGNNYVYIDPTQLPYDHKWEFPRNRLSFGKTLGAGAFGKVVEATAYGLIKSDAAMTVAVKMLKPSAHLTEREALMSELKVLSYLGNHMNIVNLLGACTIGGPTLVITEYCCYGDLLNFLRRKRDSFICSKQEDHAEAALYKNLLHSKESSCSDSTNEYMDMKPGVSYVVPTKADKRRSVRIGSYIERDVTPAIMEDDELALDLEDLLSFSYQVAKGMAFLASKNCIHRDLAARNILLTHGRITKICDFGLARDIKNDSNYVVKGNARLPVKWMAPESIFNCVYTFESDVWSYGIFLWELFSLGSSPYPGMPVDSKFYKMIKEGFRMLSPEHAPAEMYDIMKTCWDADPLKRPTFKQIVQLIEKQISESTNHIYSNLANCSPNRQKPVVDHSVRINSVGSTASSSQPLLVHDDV
T4 sequence (Q96GD4 whole entry): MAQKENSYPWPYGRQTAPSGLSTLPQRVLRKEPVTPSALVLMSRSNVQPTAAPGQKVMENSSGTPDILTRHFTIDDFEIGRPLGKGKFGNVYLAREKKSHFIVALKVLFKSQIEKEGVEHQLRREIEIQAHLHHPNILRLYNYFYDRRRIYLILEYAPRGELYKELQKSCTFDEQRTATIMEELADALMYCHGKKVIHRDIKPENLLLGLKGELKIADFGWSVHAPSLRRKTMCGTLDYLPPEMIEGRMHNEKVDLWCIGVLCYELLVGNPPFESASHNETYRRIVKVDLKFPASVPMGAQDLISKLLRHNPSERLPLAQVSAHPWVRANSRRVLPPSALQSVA
T1 sequence (P08581 25-1390): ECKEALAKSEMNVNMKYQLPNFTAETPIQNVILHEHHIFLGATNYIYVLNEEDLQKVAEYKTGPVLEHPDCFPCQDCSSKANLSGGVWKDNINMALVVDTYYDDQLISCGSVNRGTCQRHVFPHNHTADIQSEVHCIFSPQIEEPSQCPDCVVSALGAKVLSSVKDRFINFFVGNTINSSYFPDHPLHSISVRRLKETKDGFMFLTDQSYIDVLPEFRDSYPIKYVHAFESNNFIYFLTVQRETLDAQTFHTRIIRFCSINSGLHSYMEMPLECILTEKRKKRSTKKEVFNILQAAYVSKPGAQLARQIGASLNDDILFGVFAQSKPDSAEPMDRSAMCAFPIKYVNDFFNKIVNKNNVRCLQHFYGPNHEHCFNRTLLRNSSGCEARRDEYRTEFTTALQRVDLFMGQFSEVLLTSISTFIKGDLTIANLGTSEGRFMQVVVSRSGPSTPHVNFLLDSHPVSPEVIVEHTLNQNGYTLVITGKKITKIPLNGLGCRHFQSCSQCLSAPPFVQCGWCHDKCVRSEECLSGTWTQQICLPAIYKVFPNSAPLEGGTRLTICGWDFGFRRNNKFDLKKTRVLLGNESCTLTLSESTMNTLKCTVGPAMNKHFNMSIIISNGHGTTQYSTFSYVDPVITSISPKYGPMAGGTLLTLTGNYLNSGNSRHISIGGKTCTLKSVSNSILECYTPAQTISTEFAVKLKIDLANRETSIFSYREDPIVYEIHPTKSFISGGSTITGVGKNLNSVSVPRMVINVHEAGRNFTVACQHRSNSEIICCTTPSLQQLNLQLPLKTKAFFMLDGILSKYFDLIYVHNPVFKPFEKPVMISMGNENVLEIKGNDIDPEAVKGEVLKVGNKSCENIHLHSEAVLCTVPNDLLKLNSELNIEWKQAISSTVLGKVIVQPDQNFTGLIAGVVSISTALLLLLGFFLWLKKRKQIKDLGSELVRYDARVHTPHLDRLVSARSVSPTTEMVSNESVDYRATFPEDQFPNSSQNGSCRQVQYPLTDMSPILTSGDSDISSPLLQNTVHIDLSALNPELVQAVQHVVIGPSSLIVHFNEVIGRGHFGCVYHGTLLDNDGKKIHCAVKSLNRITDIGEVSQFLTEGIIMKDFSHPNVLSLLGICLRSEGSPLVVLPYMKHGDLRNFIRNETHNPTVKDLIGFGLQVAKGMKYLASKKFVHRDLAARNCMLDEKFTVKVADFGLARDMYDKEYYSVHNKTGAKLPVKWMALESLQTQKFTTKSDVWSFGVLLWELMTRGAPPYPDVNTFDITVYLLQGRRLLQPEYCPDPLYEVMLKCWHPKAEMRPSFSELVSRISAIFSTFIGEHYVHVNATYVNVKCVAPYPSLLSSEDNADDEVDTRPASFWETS
T3 sequence (P48736 whole entry): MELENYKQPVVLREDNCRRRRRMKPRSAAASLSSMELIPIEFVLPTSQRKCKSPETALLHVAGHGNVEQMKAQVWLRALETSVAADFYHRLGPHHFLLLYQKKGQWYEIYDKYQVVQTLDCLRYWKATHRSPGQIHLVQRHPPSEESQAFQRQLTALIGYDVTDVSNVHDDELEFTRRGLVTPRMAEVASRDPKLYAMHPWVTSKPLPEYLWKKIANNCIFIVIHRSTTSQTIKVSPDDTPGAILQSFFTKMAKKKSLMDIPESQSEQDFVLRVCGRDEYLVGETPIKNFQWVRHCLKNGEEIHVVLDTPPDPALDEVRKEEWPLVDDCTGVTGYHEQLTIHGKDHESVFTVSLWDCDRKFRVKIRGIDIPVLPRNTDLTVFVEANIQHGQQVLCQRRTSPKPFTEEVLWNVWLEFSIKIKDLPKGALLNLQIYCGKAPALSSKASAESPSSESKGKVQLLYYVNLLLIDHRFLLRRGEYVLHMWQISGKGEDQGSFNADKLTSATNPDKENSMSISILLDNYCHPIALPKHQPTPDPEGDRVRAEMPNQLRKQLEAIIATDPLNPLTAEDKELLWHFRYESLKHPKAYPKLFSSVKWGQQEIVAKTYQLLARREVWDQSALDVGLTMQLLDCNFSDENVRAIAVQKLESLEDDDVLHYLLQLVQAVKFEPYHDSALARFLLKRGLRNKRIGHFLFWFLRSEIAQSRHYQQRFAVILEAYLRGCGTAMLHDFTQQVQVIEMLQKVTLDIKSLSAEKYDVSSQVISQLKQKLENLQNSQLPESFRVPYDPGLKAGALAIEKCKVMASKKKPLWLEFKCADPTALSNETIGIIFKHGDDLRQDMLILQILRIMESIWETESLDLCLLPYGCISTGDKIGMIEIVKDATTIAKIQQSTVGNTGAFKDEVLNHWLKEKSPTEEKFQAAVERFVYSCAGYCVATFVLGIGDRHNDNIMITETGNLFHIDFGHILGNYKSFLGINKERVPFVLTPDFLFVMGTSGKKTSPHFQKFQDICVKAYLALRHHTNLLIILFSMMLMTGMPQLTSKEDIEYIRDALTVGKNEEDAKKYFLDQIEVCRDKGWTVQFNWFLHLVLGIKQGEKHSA

With `COc1cc(C(=O)N2CCC(N3CCN(C)CC3)CC2)ccc1Nc1ncc2c(n1)N(C1CCCC1)c1ccccc1C(=O)N2C` [Compound 25, 11-cyclopentyl-2-((2-methoxy-4-(4-(4-methylpiperazin-1-yl)piperidine-1-carbonyl)phenyl)amino)-5-methyl-5H-benzo[e]pyrimido[5,4-b][1,4]diazepin-6(11H)-one], in assay [1], the “KINOMEscan: MET” value worked out at 97. For the same molecule, the “KINOMEscan: KIT” value in assay [2] came to 91. The “KINOMEscan: PIK3CG” value in assay [3] amounted to 80. In addition, the “KINOMEscan: AURKB” value in assay [4] stood at 60.
Consider `COc1cc(C(=O)N2CCC(N3CCN(C)CC3)CC2)ccc1Nc1ncc2c(n1)N1CCc3cccc(c31)C(=O)N2C` [Compound 24], for which, in assay [3], the “KINOMEscan: PIK3CG” value is recorded as 30.
On to `COc1cc(C(=O)N2CCC(N3CCN(C)CC3)CC2)ccc1Nc1ncc2c(n1)N(C)c1ccccc1C(=O)N2C` [15 (LRRK2-IN-1)], for which the “KINOMEscan: MET” value in assay [1] is 100. Besides, in assay [2], the “KINOMEscan: KIT” value came out at 100. Moreover, the “KINOMEscan: PIK3CG” value in assay [3] was 15. In addition, the “KINOMEscan: AURKB” value in assay [4] stood at 38.
In the case of `CCOc1cc(C(=O)N2CCC(N3CCN(C)CC3)CC2)ccc1Nc1ncc2c(n1)N(C1CCCC1)c1ccccc1C(=O)N2C` [Compound 26], in assay [1], the “KINOMEscan: MET” value was found to be 100. Besides, in assay [2], the “KINOMEscan: KIT” value is 100. In assay [3], the “KINOMEscan: PIK3CG” value worked out at 82. Besides, the “KINOMEscan: AURKB” value in assay [4] was 100.
